The values below are quoted from earlier work in patent US6727227B1, “Tetrapetide revealing geroprotective effect, pharmacological substance on its basis, and the method of its application” (Obschestvo S Ogranichennoi Otvetstven-Nostiju “Klinika …, priority 2002, dated 2004).

The subject of one series is LAF1 strain in mice. The note with it: LAF1 mice with accelerated ageing, food-supplement; cited from earlier work.
The next series has as its system experimental animals. The note with it: cited from earlier work.
The subject of the next series is mice of C3H strain. The settings on record: addition to food; cited from earlier work.
In a further series the test system is mice. The note with it: cited from earlier work.
Series [1] relates to Drosophila melanogaster (HEM strain). The note with it: cited from earlier work.
Another series has as its system mice of SAM strain. The settings on record: diet with increased amount for 7 months; cited from earlier work.

In the case of `Cc1cc(C(C)(C)C)c(O)c(C(C)(C)C)c1` [Ionol, 2.6-di-tert-butyl4-methylphenol], in the series on LAF1 strain in mice, the Life span entry was “promoted an increase in the life span”.
Consider vitamin E, for which the Life span entry with experimental animals is listed as “increase in the life span”.
In the case of `O=C1O[C@H]([C@@H](O)CO)C(O)=C1O` [vitamin C], the Life span entry in the series on experimental animals is “increase in the life span”.
With `NCCS` [2-mercaptoethanolamine], the Life span result in the series with experimental animals is recorded as “insignificant extension in the life span”.
For `CCOc1ccc2c(c1)C(C)=CC(C)(C)N2` [ethoxyhin], the Life span entry in the series with mice of C3H strain was “extended the life span”.
With `O=C(O)[C@H](O)[C@@H](O)[C@H](O)[C@H](O)CO` [gluconic acid, lactic and gluconic acids], the Life span entry in the series on experimental animals is on record as “insignificant extension in the life span”.
Turning to `COc1ccc2[nH]cc(CCNC(C)=O)c2c1` [melatonin], the Average life span result in the series with mice is on record as “A minor increase in the average life span”. The Geroprotective effect result in series [1] is reported as “failed to produce a geroprotective effect”.
Take `NCCC(=O)N[C@@H](Cc1cnc[nH]1)C(=O)O` [carnosine]: in the series on mice of SAM strain, the Death rate entry is listed as “death rat decreased”.
Take `Oc1cccnc1` [3-hydroxypyridine]: the Life span entry in the series on experimental animals is on record as “insignificant extension in the life span”.
In the case of vitamin A, the Life span result in the series on experimental animals was “increase in the life span”.
For the compound `N[C@@H](CCC(=O)N[C@@H](CS)C(=O)NCC(=O)O)C(=O)O` [glutathione], in the series with experimental animals, the Life span result is on record as “insignificant extension in the life span”.
In the case of `CN(C)CCOC(=O)COc1ccc(Cl)cc1` [centrophenoxyn], the Life span entry in the series on experimental animals is “insignificant extension in the life span”.
As for `N[C@@H](CS)C(=O)O` [cystein], in the series with experimental animals, the Life span entry is “insignificant extension in the life span”.
For `CCc1nc(C)ccc1O.Cl` [2-ethyl-6-methyl-3-oxypyridine chlorhydrate], the Life span entry in the series on experimental animals is recorded as “An increase in the life span”.
As for butyl hydroxytoluol, the Life span result with experimental animals is recorded as “insignificant extension in the life span”.
